This test concerns the target P70S6K (T412E mutant) (Homo sapiens (Human), UniProt P23443, T412E). Nature of the test: P70S6K enzyme assay. In kind it is biochemical. As to conditions: 3 nM P70S6K T412E mutant, 24 μM ATP, 1 μM FITC-AHA-AKRRRLSSLRA-OH substrate peptide, 90 min at 25° C. Summed up:
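P70S6K T412E mutant (3 nM) with 24 μM ATP and 1 μM FITC-labelled S6-derived peptide in Hepes pH 7.5, MgCl2, DTT, Brij buffer; 90 min at 25° C, stopped with EDTA. Phosphorylated product and substrate peptides separated by microfluidic mobility shift; IC50 values derived.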
Chain of P70S6K (T412E mutant) (P23443 whole entry T412E): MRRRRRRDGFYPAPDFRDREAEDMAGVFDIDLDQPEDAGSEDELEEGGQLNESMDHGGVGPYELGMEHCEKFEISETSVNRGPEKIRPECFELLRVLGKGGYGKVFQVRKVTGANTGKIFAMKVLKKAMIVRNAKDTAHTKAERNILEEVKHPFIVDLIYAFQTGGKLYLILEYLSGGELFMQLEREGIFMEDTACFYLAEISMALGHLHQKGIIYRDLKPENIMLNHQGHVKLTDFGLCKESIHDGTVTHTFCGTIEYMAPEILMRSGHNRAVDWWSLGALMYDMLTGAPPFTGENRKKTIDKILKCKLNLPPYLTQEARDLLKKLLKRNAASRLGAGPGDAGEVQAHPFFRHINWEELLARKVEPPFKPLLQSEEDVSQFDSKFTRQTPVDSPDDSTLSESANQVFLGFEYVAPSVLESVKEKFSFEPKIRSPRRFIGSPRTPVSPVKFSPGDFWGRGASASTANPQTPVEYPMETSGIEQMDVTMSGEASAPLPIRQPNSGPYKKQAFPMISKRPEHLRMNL
As to `NCC(c1ccc(C(F)(F)F)cc1)C1CCN(c2ncnc(N)c2-c2cnoc2)CC1` (stereo not drawn) [Example 59, 6-(4-(2-amino-1-(4-(trifluoromethyl)phenyl)ethyl)piperidin-1-yl)-5-(isoxazol-4-yl)pyrimidin-4-amine], the IC50 stood at 140 nM. In the case of `COC[C@H](NC(=O)C1(N)CCN(c2ncnc(N)c2Cl)CC1)c1ccc(Cl)cc1` [Example 234, 4-Amino-1-(6-amino-5-chloro-pyrimidin-4-yl)-piperidine-4-carboxylic acid [(R)-1-(4-chloro-phenyl)-2-methoxy-ethyl]-amide], the half-inhibitory concentration (IC50) worked out at 560 nM.

`Nc1ncnc(N2CCC(N)(CNC(=O)c3ccc(F)cc3F)CC2)c1-c1ccc(F)cc1` [Example 208, N-{4-Amino-1-[6-amino-5-(4-fluoro-phenyl)-pyrimidin-4-yl]-piperidin-4-ylmethyl}-2,4-difluoro-benzamide] returned an IC50 of 46 nM. Compound `C=Cc1c(N)ncnc1N1CCN(C(CN)c2ccc(C(F)(F)F)cc2)CC1` (stereo not drawn) [Example 19, 6-(4-(2-amino-1-(4-(trifluoromethyl)-phenyl)ethyl)piperazin-1-yl)-5-vinylpyrimidin-4-amine] had an IC50 of 19 nM. `Nc1ncnc(N2CCN(C(CN3CCCCC3)c3ccc(C(F)(F)F)cc3)CC2)c1Br` (stereo not drawn) [Example 11, 5-bromo-6-(4-(2-(piperidin-1-yl)-1-(4-(trifluoromethyl)phenyl)ethyl)piperazin-1-yl)pyrimidin-4-amine]: the IC50 worked out at 280 nM. With `Nc1ncnc(N2CCN(C(CN3CCC3)c3ccc(C(F)(F)F)cc3F)CC2)c1-c1cn[nH]c1` (stereo not drawn) [Example 120, 6-{4-[2-Azetidin-1-yl-1-(2-fluoro-4-trifluoromethyl-phenyl)-ethyl]-piperazin-1-yl}-5-(1H-pyrazol-4-yl)-pyrimidin-4-ylamine], the IC50 was 1100 nM. To `C[C@H](c1ccccc1)[C@H](CN)N1CCN(c2ncnc(N)c2-c2ccc(F)cc2)CC1` [Example 171, 6-[4-((1R,2R)-1-Aminomethyl-2-phenyl-propyl)-piperazin-1-yl]-5-(4-fluoro-phenyl)-pyrimidin-4-ylamine] belongs 73 nM; to `CS(=O)(=O)c1ccc([C@H](CN2CCC2)N2CCN(c3ncnc(N)c3-c3cn[nH]c3)CC2)cc1` [Example 93, 6-{4-[(R)-2-Azetidin-1-yl-1-(4-methanesulfonyl-phenyl)-ethyl]-piperazin-1-yl}-5-(1H-pyrazol-4-yl)-pyrimidin-4-ylamine], 4300 nM. The compound `CCOC(=O)Cn1cc(-c2c(N)ncnc2N2CCN(C(CN3CCC3)c3ccc4c(c3)CCCC4)CC2)cn1` (stereo not drawn) [Example 119, [4-(4-Amino-6-{4-[2-azetidin-1-yl-1-(5,6,7,8-tetrahydro-naphthalen-2-yl)-ethyl]-piperazin-1-yl}-pyrimidin-5-yl)-pyrazol-1-yl]-acetic acid ethyl ester] yielded an IC50 of 22000 nM. Take `NCC(c1cccnc1)N1CCN(c2ncnc(N)c2-c2ccc(F)cc2)CC1` (stereo not drawn) [Example 193, 6-[4-(2-Amino-1-pyridin-3-yl-ethyl)-piperazin-1-yl]-5-(4-fluoro-phenyl)-pyrimidin-4-ylamine]: it took 31 nM to reach half-maximal inhibition (IC50). To `Cn1ccnc1C(c1ccccc1)N1CCN(c2ncnc(N)c2-c2ccc(F)cc2)CC1` (stereo not drawn) [Example 30, 5-(4-Fluoro-phenyl)-6-{4-[(1-methyl-1H-imidazol-2-yl)-phenyl-methyl]-piperazin-1-yl}-pyrimidin-4-ylamine] belongs 34.5 nM; to `CCc1c(N)ncnc1N1CCN(C(CN)c2ccc(Cl)nc2)CC1` (stereo not drawn) [Example 177, 6-{4-[2-Amino-1-(6-chloro-pyridin-3-yl)-ethyl]-piperazin-1-yl}-5-ethyl-pyrimidin-4-ylamine], 200 nM. The compound `NCC(c1ccc(C(F)(F)F)cc1)N1CCN(c2ncnc(N)c2-c2cn[nH]c2)CC1` (stereo not drawn) [Example 7, 6-{4-[2-Amino-1-(4-trifluoromethyl-phenyl)-ethyl]-piperazin-1-yl}-5-(1H-pyrazol-4-yl)-pyrimidin-4-ylamine] gave an IC50 of 2.8 nM. In turn, `Nc1ncnc(N2CCC(N)(C(=O)N[C@@H](CCO)c3ccccc3)CC2)c1Cl` [Example 228, 4-Amino-1-(6-amino-5-chloro-pyrimidin-4-yl)-piperidine-4-carboxylic acid ((S)-3-hydroxy-1-phenyl-propyl)-amide] returned an IC50 of 2800 nM. For `Nc1ncnc(N2CCN(C(CN3CCCC3)c3cccc(C(F)(F)F)c3)CC2)c1Br` (stereo not drawn) [Example 69, 5-Bromo-6{4-[1-(3-trifluoromethyl-phenyl)-2-pyrrolidin-1-yl-ethyl]-piperazin-1-yl}-pyrimidin-4-ylamine], the IC50 was more than 1000 nM.

`COC(=O)c1ccc(-c2c(N)ncnc2N2CCN(C(CN(C)C)c3ccc(C(F)(F)F)cc3)CC2)cc1` (stereo not drawn) [Example 23, Methyl 4-(4-amino-6-(4-(2-(dimethylamino)-1-(4-(trifluoromethyl)phenyl)ethyl)piperazin-1-yl)pyrimidin-5-yl)benzoate] came in with an IC50 of 12 nM. As to `NCC(c1ccccc1)N1CCN(c2ncnc(N)c2Br)CC1` (stereo not drawn) [Example 5, 6-[4-(2-Amino-1-phenyl-ethyl)-piperazin-1-yl]-5-bromo-pyrimidin-4-ylamine], the IC50 amounted to 330 nM. In turn, `NC[C@H](c1ccc(C(F)(F)F)cc1)C1CCN(c2ncnc(N)c2-c2cn[nH]c2)CC1` (single isomer, unassigned) [Example 56] displayed an IC50 of 22 nM.

`Nc1ncnc(N2CCC(N)(CNC(=O)c3ccc(F)cc3F)C2)c1-c1ccc(N2CCNCC2)nc1` (stereo not drawn) [Example 206, N-{3-Amino-1-[6-amino-5-(6-piperazin-1-yl-pyridin-3-yl)-pyrimidin-4-yl]-pyrrolidin-3-ylmethyl}-2,4-difluoro-benzamide] yielded an IC50 of 1000 nM. Consider `Nc1ncnc(N2CC[C@](N)(CNC(=O)c3ccc(F)cc3F)C2)c1-c1ccc(F)cc1` (single isomer, unassigned) [Example 249], for which the midpoint of inhibition, the IC50, lay at 5.9 nM. As to `CCc1c(N)ncnc1N1CCN(C(CN)C2CCCCC2)CC1` (stereo not drawn) [Example 188, 6-[4-(2-Amino-1-cyclohexyl-ethyl)-piperazin-1-yl]-5-ethyl-pyrimidin-4-ylamine], the IC50 is more than 1000 nM. Consider `N#Cc1ccc(C(CN2CCC2)N2CCN(c3ncnc(N)c3-c3cn[nH]c3)CC2)cc1` (single isomer, unassigned) [Example 85, 4-(1-{4-[6-Amino-5-(1H-pyrazol-4-yl)-pyrimidin-4-yl]-piperazin-1-yl}-2-azetidin-1-yl-ethyl)-benzonitrile], for which half-maximal inhibition (IC50) was put at 2800 nM.

Take `NCC(c1ccc(C(F)(F)F)cc1)C1CCN(c2ncnc(N)c2-c2cn[nH]c2)CC1` (stereo not drawn) [Example 55, 6-(4-(2-amino-1-(4-(trifluoromethyl)phenyl)ethyl)piperidin-1-yl)-5-(1H-pyrazol-4-yl)pyrimidin-4-amine]: the IC50 is 5.2 nM. In turn, `Nc1ncnc(N2CCN([C@@H](CN3CCC3)c3ccc4c(c3)OCCO4)CC2)c1-c1cn[nH]c1` [Example 107, 6-{4-[(R)-2-Azetidin-1-yl-1-(2,3-dihydro-benzo[1,4]dioxin-6-yl)-ethyl]-piperazin-1-yl}-5-(1H-pyrazol-4-yl)-pyrimidin-4-ylamine] showed an IC50 of 5200 nM.

`Nc1ncnc(N2CCN(C(CN3CCCC3)c3ccc(F)cc3)CC2)c1Cl` (stereo not drawn) [Example 81, 5-Chloro-6{4-[1-(4-fluorophenyl)-2-pyrrolidin-1-yl-ethyl]-piperazin-1-yl}-pyrimidin-4-ylamine] had an IC50 of more than 1000 nM. `NCC(c1ccc(C(F)(F)F)cc1)N1CCN(c2ncnc(N)c2CN2CC(F)C2)CC1` (stereo not drawn) [Example 45, 6-(4-(2-amino-1-(4-(trifluoromethyl)phenyl)ethyl)piperazin-1-yl)-5-((3-fluoroazetidin-1-yl)methyl)pyrimidin-4-amine] came in with an IC50 of 210 nM.

As for `Nc1ncnc(N2CCC(N)(C(=O)N[C@@H](CCO)c3ccncc3)CC2)c1Cl` [Example 239, 4-Amino-1-(6-amino-5-chloro-pyrimidin-4-yl)-piperidine-4-carboxylic acid ((S)-3-hydroxy-1-pyridin-4-yl-propyl)-amide], it took 7200 nM to reach half-maximal inhibition (IC50).

The compound `Nc1ncnc(N2CCC(C(NC3CCCC3)c3ccc(F)cc3)CC2)c1-c1ccc(F)cc1` (stereo not drawn) [Example 145, 6-(4-((cyclopentylamino)(4-fluorophenyl)methyl)piperidin-1-yl)-5-(4-fluorophenyl)pyrimidin-4-amine] registered an IC50 of 120 nM. `Cn1cc(-c2c(N)ncnc2N2CCC(C(CN)c3ccc(C(F)(F)F)cc3)CC2)cn1` (stereo not drawn) [Example 58, 6-(4-(2-amino-1-(4-(trifluoromethyl)phenyl)ethyl)piperidin-1-yl)-5-(1-methyl-1H-pyrazol-4-yl)pyrimidin-4-amine] showed an IC50 of 31 nM. On to `Nc1ncnc(N2CCN(C(CN3CCCCC3)c3cccc(C(F)(F)F)c3)CC2)c1-c1ccc(F)cc1` (stereo not drawn) [Example 65, 5-(4-Fluorophenyl)-6{4-[1-(3-trifluoro-phenyl)-2-piperidin-1-yl-ethyl]-piperazin-1-yl}-pyrimidin-4-ylamine], for which the IC50 came to 120 nM. To `COc1ccc(C(CN2CCC2)N2CCN(c3ncnc(N)c3-c3ccc(F)cc3)CC2)cc1F` (stereo not drawn) [Example 92, 6-{4-[2-Azetidin-1-yl-1-(3-fluoro-4-methoxy-phenyl)-ethyl]-piperazin-1-yl}-5-(4-fluoro-phenyl)-pyrimidin-4-ylamine] belongs 300 nM.

Compound `N#CC(c1cccnc1)N1CCN(c2ncnc(N)c2-c2ccc(F)cc2)CC1` (stereo not drawn) [Example 190, {4-[6-Amino-5-(4-fluoro-phenyl)-pyrimidin-4-yl]-piperazin-1-yl}-pyridin-3-yl-acetonitrile] gave an IC50 of 230 nM. `NCC(c1ccc(C(F)(F)F)cc1)N1CCN(c2ncnc(N)c2C2=CCCC2)CC1` (stereo not drawn) [Example 25, 6-(4-(2-amino-1-(4-(trifluoromethyl)phenyl)ethyl)piperazin-1-yl)-5-(cyclopent-1-en-1-yl)pyrimidin-4-amine]: the IC50 turned out to be 3.4 nM.
